From paper PMC12040169 (PLOS Biology, 2025) come the findings set out here.

Structures are written as SMILES.

One may read the viability as a read-out of living cells in per cent, often relative to untreated cells.

This data set is described as follows: in vitro. The settings on record: human, hela cells, % viability.

Take `C#CCNC(=O)c1nn(Cc2ccc(CN3C(=O)CCC3=O)cc2)c2ccc(OC)cc12` [CBK048668]: the viability at 28.5 h, 10 µM came to 86.2%.

For the compound `CS(=O)(=O)Nc1nccnc1N1CCN(C(=O)c2ccno2)CC1` [CBK048861], the viability at 28.5 h, 10 µM was found to be 107%.

Consider `CNC(=S)N1CCN(c2nccnc2NS(=O)(=O)C2CC2)CC1` [CBK048905], for which the viability at 28.5 h, 10 µM stood at 96.2%.

In the case of `COc1ccc(OC)c(-c2cc(C(=O)O)c(C)o2)c1` [CBK049343], the viability at 28.5 h, 10 µM was 97.9%.

Regarding `COCc1ccc(-c2nccnc2NS(=O)(=O)c2c(C)noc2C)cc1` [CBK049656], the viability at 28.5 h, 10 µM is 122%.

In the case of `COc1ccccc1CN(CC1CCNCC1)C(=O)Nc1c(C)noc1C` [CBK049739], the viability at 28.5 h, 10 µM came out at 94.7%.

For `CCOC(=O)c1ccccc1NC(=O)N(Cc1ccc2ccccc2c1)CC1CCNCC1` [CBK049769], the viability at 28.5 h, 10 µM came to 98.3%.

Take `Cc1ccc(NC(=O)N(Cc2ccc3ccccc3c2)CC2CCNCC2)cc1[N+](=O)[O-]` [CBK049771]: the viability at 28.5 h, 10 µM stood at 100%.

As to `O=C(NCCc1ccccc1)N(Cc1ccc(-c2ccccc2)cc1)CC1CCNCC1` [CBK049792], the viability at 28.5 h, 10 µM is 106%.

Turning to `COc1ccc(F)c(CN(CC2CCNCC2)C(=O)Nc2c(F)cccc2F)c1` [CBK049804], the viability at 28.5 h, 10 µM came to 110%.

Regarding `COc1ccc(F)c(CN(CC2CCNCC2)C(=O)Nc2ccccc2C(F)(F)F)c1` [CBK049805], the viability at 28.5 h, 10 µM amounted to 96.9%.

Consider `COc1ccc(F)c(CN(CC2CCNCC2)C(=O)Nc2c(C)noc2C)c1` [CBK049811], for which the viability at 28.5 h, 10 µM is 112%.

On to `O=C(O)c1[nH]c2ccccc2c1NS(=O)(=O)c1ccc(Br)cc1` [CBK049878], for which the viability at 28.5 h, 10 µM is 61.1%.

On to `Cc1ccc(S(=O)(=O)Nc2c(C(=O)O)[nH]c3ccccc23)cc1` [CBK049880], for which the viability at 28.5 h, 10 µM amounted to 72.6%.

Consider `O=C(O)c1[nH]c2ccccc2c1NS(=O)(=O)c1cc(F)c(Br)cc1F` [CBK049885], for which the viability at 28.5 h, 10 µM is 62.8%.

With `O=C(O)c1[nH]c2ccccc2c1NS(=O)(=O)c1cc(Cl)sc1Cl` [CBK049886], the viability at 28.5 h, 10 µM amounted to 67.5%.

Take `COc1ccc(Br)cc1S(=O)(=O)Nc1c(C(=O)O)[nH]c2ccccc12` [CBK049887]: the viability at 28.5 h, 10 µM is 97.5%.

On to `CC(=O)Nc1ccc(S(=O)(=O)Nc2nnc(CC(C)(C)C)s2)cc1` [CBK049910], for which the viability at 28.5 h, 10 µM is 87.7%.

`COc1ccc(OC)c(-c2cc(C(=O)O)c(C)s2)c1` [CBK049922]: the viability at 28.5 h, 10 µM turned out to be 96.5%.

Consider `O=C(CC1SC(NC2CC3C=CC2C3)=NC1=O)NCc1ccccc1` (stereo not shown) [CBK049940], for which the viability at 28.5 h, 10 µM came to 87.1%.

In the case of `O=S(=O)(Cc1cc(Cl)ccc1C(F)(F)F)c1cc2c(N3CCNCC3)nccc2s1` [CBK049960C], the viability at 28.5 h, 10 µM was found to be 115%.

Regarding `COC(=O)c1sc2ncccc2c1NS(=O)(=O)c1ccc(C(F)(F)F)cc1[N+](=O)[O-]` [CBK049969], the viability at 28.5 h, 10 µM worked out at 95.4%.

For `COC(=O)c1sc2ncccc2c1NS(=O)(=O)c1cc(Br)ccc1OC` [CBK049971], the viability at 28.5 h, 10 µM was determined as 91.9%.

As to `Cc1ccc(S(=O)(=O)Nc2c(C(=O)O)sc3ncccc23)cc1[N+](=O)[O-]` [CBK049983], the viability at 28.5 h, 10 µM stood at 91.6%.

For the compound `COc1ccc(S(=O)(=O)Nc2c(C(=O)N3CCOCC3)sc3ncccc23)cc1OC` [CBK050005], the viability at 28.5 h, 10 µM stood at 108%.

`CCc1nnc(NS(=O)(=O)c2ccc(NC(=S)Nc3ccc(F)cc3)cc2)s1` [CBK050037]: the viability at 28.5 h, 10 µM came out at 89.7%.

As for `CN1CCN(C(=O)c2[nH]c3ccccc3c2NS(=O)(=O)/C=C/c2ccccc2)CC1` [CBK050047], the viability at 28.5 h, 10 µM turned out to be 106%.

Turning to `Cc1noc(C)c1S(=O)(=O)Nc1c(C(=O)N2CCN(C)CC2)[nH]c2ccccc12` [CBK050057], the viability at 28.5 h, 10 µM turned out to be 98.9%.

With `Cc1ccc(S(=O)(=O)Nc2c(C(=O)N3CCOCC3)[nH]c3ccccc23)cc1` [CBK050066], the viability at 28.5 h, 10 µM was 88.7%.

Consider `O=C(c1[nH]c2ccccc2c1NS(=O)(=O)Cc1ccccc1)N1CCOCC1` [CBK050067], for which the viability at 28.5 h, 10 µM turned out to be 99.5%.

Consider `Cc1c(Cl)cccc1S(=O)(=O)Nc1c(C(=O)N2CCOCC2)[nH]c2ccccc12` [CBK050076], for which the viability at 28.5 h, 10 µM is 109%.

On to `O=C(Nc1ccc(F)cc1)c1[nH]c2ccccc2c1NS(=O)(=O)c1ccc(C(F)(F)F)cc1[N+](=O)[O-]` [CBK050090], for which the viability at 28.5 h, 10 µM was found to be 90.1%.

Regarding `O=C(Nc1ccc(F)cc1)c1[nH]c2ccccc2c1NS(=O)(=O)c1cc(Cl)sc1Cl` [CBK050094], the viability at 28.5 h, 10 µM is 95%.

In the case of `Cc1noc(C)c1S(=O)(=O)Nc1c(C(=O)Nc2ccc(F)cc2)[nH]c2ccccc12` [CBK050099], the viability at 28.5 h, 10 µM turned out to be 119%.

With `CCN(CC)C(=O)c1[nH]c2ccccc2c1NS(=O)(=O)Cc1ccccc1` [CBK050107], the viability at 28.5 h, 10 µM was 108%.

For the compound `CCN(CC)C(=O)c1[nH]c2ccccc2c1NS(=O)(=O)c1ccc(C(F)(F)F)cc1[N+](=O)[O-]` [CBK050109], the viability at 28.5 h, 10 µM was 103%.

For the compound `CCCc1ccc(S(=O)(=O)Nc2c(C(=O)N(CC)CC)[nH]c3ccccc23)cc1` [CBK050111], the viability at 28.5 h, 10 µM is 87.1%.

On to `CCN(CC)C(=O)c1[nH]c2ccccc2c1NS(=O)(=O)c1c(C)noc1C` [CBK050117], for which the viability at 28.5 h, 10 µM was found to be 89.1%.

`COc1ccc([C@@]23CC=C(N(Cc4ccccc4)C(=O)Nc4ccc(F)c(F)c4)C[C@@H]2N(C)CC3)cc1OC` [CBK050179]: the viability at 28.5 h, 10 µM worked out at 94.9%.

For `COc1cccc([C@H]2CC[C@H](N(CCN(C)C)C(=O)Nc3cc(F)ccc3F)CC2)c1OC` [CBK050184], the viability at 28.5 h, 10 µM was determined as 113%.

For `O=C(CCS(=O)(=O)c1ccccc1)Nc1c(F)cc(F)cc1OC1CCNCC1` [CBK050226T], the viability at 28.5 h, 10 µM is 87.4%.

Regarding `COc1cc(F)cc(OC2CCNCC2)c1NC(=O)Cc1cn(C)c2ccccc12` [CBK050245T], the viability at 28.5 h, 10 µM was determined as 105%.

Consider `Cc1nn(C)c(N2CCNCC2)c1NC(=O)COc1ccccc1` [CBK050249T], for which the viability at 28.5 h, 10 µM was determined as 103%.

For `Cc1nn(C)c(N2CCNCC2)c1NC(=O)Cc1cn(C)c2ccccc12` [CBK050254T], the viability at 28.5 h, 10 µM is 94.5%.

In the case of `Cc1nn(C)c(N2CCNCC2)c1NC(=O)CN(C)C(=O)c1ccccc1` [CBK050255T], the viability at 28.5 h, 10 µM was determined as 109%.

On to `CSc1nc(NC(=O)CCCc2ccccc2)cc(N2CCNCC2)n1` [CBK050258T], for which the viability at 28.5 h, 10 µM amounted to 111%.

Turning to `COc1ccc(CCCC(=O)Nc2cc(N3CCNCC3)nc(SC)n2)cc1OC` [CBK050261T], the viability at 28.5 h, 10 µM came to 101%.

As for `CSc1nc(NC(=O)Cc2c[nH]c3ccccc23)cc(N2CCNCC2)n1` [CBK050265T], the viability at 28.5 h, 10 µM turned out to be 84.4%.

With `CSc1nc(NC(=O)c2ccccc2)cc(N2CCNCC2)n1` [CBK050266T], the viability at 28.5 h, 10 µM amounted to 93.6%.

As to `O=C(Nc1c(F)cc(F)cc1OC1CCNCC1)c1ccnc2ccccc12` [CBK050277T], the viability at 28.5 h, 10 µM worked out at 94.9%.

For the compound `CCOc1ccsc1C(=O)Nc1c(OC)cc(F)cc1OC1CCNCC1` [CBK050292T], the viability at 28.5 h, 10 µM worked out at 94.3%.

`COc1cc(F)cc(OC2CCNCC2)c1NC(=O)c1cnccn1` [CBK050296T]: the viability at 28.5 h, 10 µM was 90.3%.

For the compound `Cc1nn(C)c(N2CCNCC2)c1NC(=O)c1cccs1` [CBK050303T], the viability at 28.5 h, 10 µM worked out at 91.9%.

`COc1ccc(C(=O)Nc2c(C)nn(C)c2N2CCNCC2)cc1` [CBK050306T]: the viability at 28.5 h, 10 µM worked out at 94.5%.

Regarding `Cc1nn(C)c(N2CCNCC2)c1NC(=O)c1cnccn1` [CBK050308T], the viability at 28.5 h, 10 µM stood at 86.3%.

Turning to `CSc1nc(NC(=O)c2ccoc2)cc(N2CCNCC2)n1` [CBK050314T], the viability at 28.5 h, 10 µM turned out to be 88.9%.

Regarding `CSc1nc(NC(=O)c2cccs2)cc(N2CCNCC2)n1` [CBK050315T], the viability at 28.5 h, 10 µM came to 89.7%.

With `Cc1oc(-c2ccccc2)cc1C(=O)Nc1c(F)cc(F)cc1OC1CCNCC1` [CBK050326T], the viability at 28.5 h, 10 µM turned out to be 89.8%.

In the case of `O=C(Nc1c(F)cc(F)cc1OC1CCNCC1)c1coc2c1C(=O)CCC2` [CBK050331T], the viability at 28.5 h, 10 µM was 93.9%.

Consider `CC1(C)CC(=O)C=C(C(=O)Nc2c(F)cc(F)cc2OC2CCNCC2)O1` [CBK050332T], for which the viability at 28.5 h, 10 µM was found to be 110%.

For `COc1cc(F)cc(OC2CCNCC2)c1NC(=O)/C=C/c1cccnc1` [CBK050344T], the viability at 28.5 h, 10 µM worked out at 103%.

With `COc1cc(F)cc(OC2CCNCC2)c1NC(=O)c1c(-c2ccccc2)noc1C` [CBK050350T], the viability at 28.5 h, 10 µM turned out to be 91.8%.

As to `Cc1nn(C)c(N2CCNCC2)c1NC(=O)c1cc(-c2ccccc2)oc1C` [CBK050356T], the viability at 28.5 h, 10 µM amounted to 92.8%.

Regarding `CSc1nc(NC(=O)c2cc(-c3ccccc3)oc2C)cc(N2CCNCC2)n1` [CBK050364T], the viability at 28.5 h, 10 µM came out at 89.9%.

In the case of `CC(=O)N1CCOc2ccccc21` [CBK050388], the viability at 28.5 h, 10 µM was determined as 92.7%.

Consider `CCN(CC)C(=O)c1sccc1NS(=O)(=O)Cc1ccccc1` [CBK050393], for which the viability at 28.5 h, 10 µM worked out at 106%.

As for `CCOC(=O)c1c(NS(=O)(=O)c2cc(Cl)sc2Cl)sc2c1CCCC2` [CBK050397], the viability at 28.5 h, 10 µM came out at 96.1%.

On to `O=C(Nc1ccc(F)cc1)c1ccc(NS(=O)(=O)Cc2ccccc2[N+](=O)[O-])cc1` [CBK050405], for which the viability at 28.5 h, 10 µM was 93%.

For `O=C(Nc1ccc(F)cc1)c1cccc(NS(=O)(=O)c2cc(Br)c(Cl)s2)c1` [CBK050410], the viability at 28.5 h, 10 µM turned out to be 93.4%.

Turning to `O=S(=O)(Nc1cccc(-c2nnn[nH]2)c1)c1ccc(F)cc1` [CBK050470], the viability at 28.5 h, 10 µM was 88.5%.

For the compound `Cn1nccc1NS(=O)(=O)c1ccc(F)cc1` [CBK050484], the viability at 28.5 h, 10 µM was determined as 106%.

Regarding `Cc1cnc(CNS(=O)(=O)c2ccc(F)cc2)cn1` [CBK050489], the viability at 28.5 h, 10 µM was 107%.

Turning to `CN1CCN(S(=O)(=O)c2ccc(F)cc2)CC1` [CBK050491], the viability at 28.5 h, 10 µM is 88%.

With `O=S(=O)(Nc1nc2cc(Cl)ccc2o1)c1ccc(Oc2ccccc2)cc1` [CBK050499], the viability at 28.5 h, 10 µM amounted to 97.8%.

On to `COc1ccc(S(=O)(=O)Nc2nc(C)c(C(=O)Nc3ccc(F)cc3)s2)cc1OC` [CBK050538], for which the viability at 28.5 h, 10 µM was found to be 103%.

For the compound `Cc1nc(NS(=O)(=O)c2c(C)noc2C)sc1C(=O)N1CCOCC1` [CBK050574], the viability at 28.5 h, 10 µM is 98.4%.
